Experimental findings from patent US10689377B2 (Mirati Therapeutics, Inc., priority 2017, dated 2020) are described below.

Data set [1] addresses KRas G12C (Homo sapiens, UniProt P01116, G12C). In words: Cellular inhibition of KRas G12C measured by Phospho-ERK in NCI-H358 cells. The class given is cell-based. The note with it: pERK(Thr202/Tyr204) normalized with GAPDH, NCI-H358 cells, 3 hours; read-out: IC50. The method in brief: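 NCI-H358 cells were allowed to attach for 8-12 hours, then exposed to compounds for 3 hours at 0.5% DMSO final. After formaldehyde fixation and methanol permeabilization, phospho-ERK (Thr202/Tyr204) was detected by in-cell immunofluorescence and normalized to GAPDH; IC50 came from a 4-parameter fit of percent-of-DMSO values.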

Data set [2] can be described thus: In vitro stability in human whole blood. In kind it is in vitro ADME. The note with it: male, whole blood diluted to 50% with PBS, pH 7.4, human whole blood diluted to 50% with PBS, 5 μM, 37° C., 240-minute incubation, read-out: Compound Half-life. From the text: Materials: The following reagents were used as received: acetonitrile (HPLC grade, Burdick & Jackson, Madison, Wis.), phosphate buffered saline (PBS), pH 7.4 (Sigma-Aldrich, Co., St. Louis, Mo.), water (HPLC grade, JT Baker, Phillipsburg, N.J.), DMSO (EM Science, Merck KGaA, Darmstadt, Germany) and isopropanol (IPA, reagent grade, EMD Chemicals, Gibbstown, N.J.). Propantheline and esmolol (Sigma-Aldrich) were used as the positive control compounds in the assay. Diazepam (Sigma-Aldrich) was used as an internal standard for quantitation. Human whole blood was obtained from BioIVT (Westbury, N.Y.) […]. All other reagents and solvents were of the highest analytical grade supplied by Sigma (St. Louis, Mo.) and were used as received.
Blood Incubations: The in vitro stability of representative KRas G12C inhibitor compounds of the present invention in the presence whole blood was conducted in the following manner. Esmolol or propantheline, which are known to undergo ester hydrolysis by esterases in blood and plasma, were used as the positive controls in the assays. A 10 mM stock solution of propantheline, esmolol, or a compound of the present invention in DMSO was diluted to 500 μM with DMSO. Aliquots of whole blood (600 μL), in triplicate, were placed in the appropriate wells of a polypropylene 96-deep well plate (Axygen Scientific, Union City, Calif.). The blood was diluted to 50% using PBS, pH 7.4 (600 μL). The diluted blood was pre-incubated for 15 minutes at 37° C. Each well was dosed with 12 μL of the 500 μM DMSO stock simultaneously for a final test concentration of 5 μM. The plates were mixed at 600 rpm for 10 seconds on a plate shaker (IKA MTS 2/4 Digital Microtiter Shaker, VWR). Aliquots of 100 μL from each well of whole blood were transferred to three separate 96-deep well plates labeled 0, 60, or 240 minutes. At the end of each designated time point, the red blood cells were lysed with 100 μL of water, mixed at 600 rpm for one minute, and stopped with 800 μL of acetonitrile containing IS (0.625 μM diazepam). The plates were mixed on the plate shaker at 600 rpm for one minute and spun in a centrifuge at 2095×g for 7 minutes at room temperature using an Allegra benchtop centrifuge (Beckman Coulter, Fullerton, Calif.). Supernatant (100 μL) was transferred to a shallow 96-well plate (Costar) using a liquid sample handling system (Apricot, Perkin-Elmer, Boston, Mass.). The addition of 100 μL of water was added to each sample of supernatant for a final volume of 200 μL. The plates were sealed and the contents of each well were analyzed by LC-MS/MS.
Analytical quantitation: The LC-MS/MS system was comprised of an HTS-PAL autosampler (Leap Technologies, Carrboro, N.C.), an HP1200 HPLC (Agilent, Palo Alto, Calif.), and an API4000 triple quadrupole mass spectrometer (PE Sciex, a division of Applied Biosystems, Foster City, Calif.). […] The total run time, including re-equilibration, for a single injection was 2 minutes. Mass spectrometric detection of the analytes was accomplished using the ESI ionization mode. Ion current was optimized during infusion of a stock solution of propantheline, esmolol, or the representative test compound. Analyte responses, including the IS were measured by multiple reaction monitoring (MRM) of transitions unique to each compound.
Calculations: Data were acquired and peak areas were calculated for test compounds and the internal standard using Analyst 1.6.2 software (Sciex). The mean peak area ratios were calculated by averaging the peak area ratios (n=3) of each test compound and the IS for each sample.
Peak area tables were exported to BioAssay Enterprise (CambridgeSoft, Cambridge, Mass.), where the average analyte-to-internal standard peak area ratios were used to calculate percent remaining (% REM) and half-life (t1/2). Percent remaining (f) was calculated by determining the ratio of the peak area ratio at each time point to the peak area ratio of the time-zero samples. […]

KRas G12C, sequence (P01116 1-188 isoform P01116-2 G12C): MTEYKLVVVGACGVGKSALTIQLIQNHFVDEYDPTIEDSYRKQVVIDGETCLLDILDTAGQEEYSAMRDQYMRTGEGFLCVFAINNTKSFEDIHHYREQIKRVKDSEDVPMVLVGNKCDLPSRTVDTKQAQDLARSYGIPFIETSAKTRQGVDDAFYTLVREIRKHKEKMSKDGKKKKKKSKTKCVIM

As a reminder, the IC50 is the concentration that gives 50% inhibition. One may read the half-life as the time in which the quantity being followed falls by half. Regarding `CN(C/C=C/C(=O)N1CCN(c2nc(OC[C@@H]3CCCN3C)nc3c2CCN(c2cccc4cccc(Cl)c24)C3)C[C@@H]1CC#N)CC(F)(F)F` [Example 482, 2-[(2S)-4-[7-(8-chloro-1-naphthyl)-2-[[(2S)-1-methylpyrrolidin-2-yl]methoxy]-6,8-dihydro-5H-pyrido[3,4-d]pyrimidin-4-yl]-1-[(E)-4-[methyl(2,2,2-trifluoroethyl)amino]but-2-enoyl]piperazin-2-yl]acetonitrile], the IC50 in data set [1] lay in the range of 0.1 to 1000 nM. For the same compound, in data set [2], the half-life at 5 µM was over 33.3 h.

Turning to `C=CC(=O)N1CCN(c2nc(OC[C@@H]3CCCN3C)nc3c2CCN(c2cccc4cccc(C)c24)C3)C[C@@H]1CC#N` [Example 359, 2-[(2S)-4-[7-(8-methyl-1-naphthyl)-2-[[(2S)-1-methylpyrrolidin-2-yl]methoxy]-6,8-dihydro-5H-pyrido[3,4-d]pyrimidin-4-yl]-1-prop-2-enoyl-piperazin-2-yl]acetonitrile], the 50% inhibitory concentration (IC50) in data set [1] was 0.1 to 1000 nM. Moreover, the half-life at 5 µM in data set [2] fell in the range of 3.33 to 16.7 h.

As to `C=C(C(=O)N1CCN(c2nc(OC[C@@H]3CCCN3C)nc3c2CCN(c2cccc4cccc(Cl)c24)C3)C[C@@H]1CC#N)C(F)(F)F` [Example 504, 2-[(2S)-4-[7-(8-chloro-1-naphthyl)-2-[[(2S)-1-methylpyrrolidin-2-yl]methoxy]-6,8-dihydro-5H-pyrido[3,4-d]pyrimidin-4-yl]-1-[2-(trifluoromethyl)prop-2-enoyl]piperazin-2-yl]acetonitrile], the IC50 in data set [1] is 0.1 to 1000 nM. Further, the half-life at 5 µM in data set [2] is at most 3.33 h.

With `CN1CCC[C@H]1COc1nc2c(c(N3CCN(C(=O)/C=C/CN4CCC(F)C4)[C@@H](CC#N)C3)n1)CCN(c1cccc3cccc(Cl)c13)C2` (stereo partly drawn) [Example 480, 2-[(2S)-4-[7-(8-chloro-1-naphthyl)-2-[[(2S)-1-methylpyrrolidin-2-yl]methoxy]-6,8-dihydro-5H-pyrido[3,4-d]pyrimidin-4-yl]-1-[(E)-4-(3-fluoropyrrolidin-1-yl)but-2-enoyl]piperazin-2-yl]acetonitrile], in data set [1], the IC50 was 0.1 to 1000 nM. The half-life at 5 µM in data set [2] was over 33.3 h.

As to `C/C=C/C(=O)N1CCN(c2nc(OC[C@@H]3CCCN3C)nc3c2CCN(c2cccc4cccc(C)c24)C3)C[C@@H]1CC#N` [Example 372], in data set [1], the IC50 lay in the range of 0.1 to 1000 nM. In data set [2], the half-life at 5 µM is over 33.3 h.

For the compound `CN1CCC[C@H]1COc1nc2c(c(N3CCN(C(=O)/C=C/CN4CC(F)C4)[C@@H](CC#N)C3)n1)CCN(c1cccc3cccc(Cl)c13)C2` [Example 481, 2-[(2S)-4-[7-(8-chloro-1-naphthyl)-2-[[(2S)-1-methylpyrrolidin-2-yl]methoxy]-6,8-dihydro-5H-pyrido[3,4-d]pyrimidin-4-yl]-1-[(E)-4-(3-fluoroazetidin-1-yl)but-2-enoyl]piperazin-2-yl]acetonitrile], the half-inhibitory concentration (IC50) in data set [1] fell in the range of 0.1 to 1000 nM. The half-life at 5 µM in data set [2] is over 33.3 h.

With `Cc1cccc2cccc(N3CCc4c(nc(OC[C@@H]5CCCN5C)nc4N4CCN(C(=O)/C=C/C#N)[C@@H](CC#N)C4)C3)c12` [Example 501, (E)-4-((S)-2-(cyanomethyl)-4-(7-(8-methylnaphthalen-1-yl)-2-(((S)-1-methylpyrrolidin-2-yl)methoxy)-5,6,7,8-tetrahydropyrido[3,4-d]pyrimidin-4-yl)piperazin-1-yl)-4-oxobut-2-enenitrile], the IC50 in data set [1] was in the range of 0.1 to 1000 nM. Besides, the half-life at 5 µM in data set [2] is at most 3.33 h.

With `Cc1cccc2cccc(N3CCc4c(nc(OC[C@@H]5CCCN5C)nc4N4CCN(C(=O)/C=C/Cn5cccn5)[C@@H](CC#N)C4)C3)c12` [Example 509], the IC50 in data set [1] fell in the range of 0.1 to 1000 nM. Also, the half-life at 5 µM in data set [2] is over 33.3 h.

As for `COC/C=C/C(=O)N1CCN(c2nc(OC[C@@H]3CCCN3C)nc3c2CCN(c2cccc4cccc(Cl)c24)C3)C[C@@H]1CC#N` [Example 524, 2-((S)-4-(7-(8-chloronaphthalen-1-yl)-2-(((S)-1-methylpyrrolidin-2-yl)methoxy)-5,6,7,8-tetrahydropyrido[3,4-d]pyrimidin-4-yl)-1-((E)-4-methoxybut-2-enoyl)piperazin-2-yl)acetonitrile], the IC50 in data set [1] fell in the range of 0.1 to 1000 nM. The half-life at 5 µM in data set [2] was over 33.3 h.

With `COC/C=C/C(=O)N1CCN(c2nc(OC[C@@H]3CCCN3C)nc3c2CCN(c2cccc4cccc(C)c24)C3)C[C@@H]1CC#N` [Example 511, 2-((S)-1-((E)-4-methoxybut-2-enoyl)-4-(7-(8-methylnaphthalen-1-yl)-2-(((S)-1-methylpyrrolidin-2-yl)methoxy)-5,6,7,8-tetrahydropyrido[3,4-d]pyrimidin-4-yl)piperazin-2-yl)acetonitrile], the IC50 in data set [1] was 0.1 to 1000 nM. Also, the half-life at 5 µM in data set [2] is over 33.3 h.

Regarding `Cc1cccc2cccc(N3CCc4c(nc(OC[C@@H]5CCCN5C)nc4N4CCN(C(=O)/C=C/CO)[C@@H](CC#N)C4)C3)c12` [Example 510, 2-((S)-1-((E)-4-hydroxybut-2-enoyl)-4-(7-(8-methylnaphthalen-1-yl)-2-(((S)-1-methylpyrrolidin-2-yl)methoxy)-5,6,7,8-tetrahydropyrido[3,4-d]pyrimidin-4-yl)piperazin-2-yl)acetonitrile], the IC50 in data set [1] lay within 0.1 to 1000 nM. The half-life at 5 µM in data set [2] fell in the range of 16.7 to 33.3 h.

Turning to `Cc1cccc2cccc(N3CCc4c(nc(OC[C@H]5CCCN5C)nc4N4CCN(C(=O)/C=C/CF)[C@@H](CC#N)C4)C3)c12` [Example 579, 2-[(2S)-1-[(E)-4-Fluorobut-2-enoyl]-4-[7-(8-methyl-1-naphthyl)-2-[[(2R)-1-methylpyrrolidin-2-yl]methoxy]-6,8-dihydro-5H-pyrido[3,4-d]pyrimidin-4-yl]piperazin-2-yl]acetonitrile], the half-inhibitory concentration (IC50) in data set [1] was in the range of 0.1 to 1000 nM. The half-life at 5 µM in data set [2] is 16.7 to 33.3 h.

As to `CN1CCC[C@H]1COc1nc2c(c(N3CCN(C(=O)/C=C/C(F)(F)F)[C@@H](CC#N)C3)n1)CCN(c1cccc3cccc(Cl)c13)C2` [Example 490, 2-((S)-4-(7-(8-chloronaphthalen-1-yl)-2-(((S)-1-methylpyrrolidin-2-yl)methoxy)-5,6,7,8-tetrahydropyrido[3,4-d]pyrimidin-4-yl)-1-((E)-4,4,4-trifluorobut-2-enoyl)piperazin-2-yl)acetonitrile], in data set [1], the concentration for half-maximal inhibition (IC50) lay within 0.1 to 1000 nM. Moreover, in data set [2], the half-life at 5 µM was at most 3.33 h.

For the compound `Cc1cccc2cccc(N3CCc4c(nc(OC[C@@H]5CCCN5C)nc4N4CCN(C(=O)/C=C/CCl)[C@@H](CC#N)C4)C3)c12` [Example 498, 2-((S)-1-((E)-4-chlorobut-2-enoyl)-4-(7-(8-methylnaphthalen-1-yl)-2-(((S)-1-methylpyrrolidin-2-yl)methoxy)-5,6,7,8-tetrahydropyrido[3,4-d]pyrimidin-4-yl)piperazin-2-yl)acetonitrile], the IC50 in data set [1] lay in the range of 0.1 to 1000 nM. Further, the half-life at 5 µM in data set [2] was over 33.3 h.

As for `C=C(F)C(=O)N1CCN(c2nc(OC[C@H]3CCCN3C)nc3c2CCN(c2cccc4cccc(C)c24)C3)C[C@@H]1CC#N` [Example 516, 2-((S)-1-(2-fluoroacryloyl)-4-(7-(8-methylnaphthalen-1-yl)-2-(((R)-1-methylpyrrolidin-2-yl)methoxy)-5,6,7,8-tetrahydropyrido[3,4-d]pyrimidin-4-yl)piperazin-2-yl)acetonitrile], the IC50 in data set [1] was 0.1 to 1000 nM. In data set [2], the half-life at 5 µM is over 33.3 h.
